Here are results for five sequences from US12491229B2, “Stabilized peptide composition” (Shionogi & Co., Ltd., priority 2014, dated 2025).

Ends that are not written are not given here.

What all share (assay type): physicochemical
Data set [1] is described as follows: Solution stability of each peptide against pH. The settings on record: for stability in the solution state: conclusion from studies on stability in solution with different pH. The method, then:
Content and related substances were measured in accordance with the method of liquid chromatography described in general test section in Japan Pharmacopeia. To prepare the test sample, water for injection was added to the lyophilized sample, and each peptide concentration was adjusted to 0.12 mg/mL. Peak area of each peptide in the sample and the one in each standard of the drug substance were obtained, and content was calculated from dilution ratio and ratio of peak area in the sample to one in each standard described below. Residual of the content in the stability test was against the content at the time when the lyophilized sample was prepared. Related substances were calculated by ratio of peak area of the target related substance to all related substances and drug substances in each sample solution. The level of increase of the related substances was evaluated by the difference from the related substance at the moment when the lyophilized sample was prepared.
Standard solution for measuring content of the peptide described as SEQ ID NO: 1 or SEQ ID NO: 2 was prepared in each by dissolving the peptide described above into 1.6 mg/mL phosphate solution and by adjusting each peptide concentration into 0.15 mg/mL. Standard solution for measuring content of the peptide described as SEQ ID NO: 3, SEQ ID NO: 4 or SEQ ID NO: 5 was prepared in each by dissolving the peptide described above into 12.1 mg/mL of 2-amnino-2-hydroxymethyl-1,3-propanediol aqueous solution and by adjusting each peptide concentration to 0.15 mg/mL. For the stationary phase of the liquid chromatography, column with octadecyl group was used, and the measurement was performed by gradient elution method. Flow rate in the measurement was set to 1.0 mL/min.
Stability of the peptide described as SEQ ID NOs: 1-5 was evaluated in each.
The sample solution prepared with the compositions above was stored for 6 hours at 25° C. Then, the level of increase of related substances derived from the peptides described as SEQ ID NO: 1, SEQ ID NO: 2 or SEQ ID NO: 3 was measured in each, and residual of the peptides described as SEQ ID NO: 4 or SEQ ID NO: 5 was measured in each. The analytical procedure for the related substances and peptide contents was described above.

The nature of data set [2]: Solubility study 1 of each peptide against solution pH. The settings on record: pH 2-12, peptide mixed at 3 mg/mL in water for injection adjusted with hydrochloride or sodium hydroxide solution; FIG. 1. Here is the method: Solubility of the peptides described as SEQ ID NOs: 1-5 was evaluated with the condition of pH 2-12. Hydrochloride solution or sodium hydroxide solution was added to water for injection to adjust pH, and each peptide was mixed with the adjusted solution, where the peptide concentration was set to 3 mg/mL. The mixed solution was filtered, the filtered solution was diluted with 10-20 parts of water for injection, and peak area of each peptide was obtained by liquid chromatography (same test procedure described above). From peak area of each peptide, dilution ratio of the filtered solution, peak area and concentration of each standard solution described above, peptide concentration was obtained.

A short description of data set [3]: Solubility study 2 of each peptide against pH (white turbidity on decreasing pH). Details: key: ∘: dissolution; x: white turbidity. The settings on record: peptide 1.5 mg/g, pH decreased gradually with hydrochloride solution. The method, then:
As shown in the study 1 described above, when the peptide was mixed directly with water for injection, the bulk was formed, and it was difficult to dissolve the bulk. So, solubility of peptides was evaluated thermodynamically by dissolving the peptide completely once with high pH, and decreasing the solution pH gradually to check pH when white turbidity was observed.
The peptide described as SEQ ID NO: 1 or SEQ ID NO: 2 was dissolved into the solution with pH10 and solubility was examined by decreasing the solution pH in each. 15 mg of the peptide described as SEQ ID NO: 1 or SEQ ID NO: 2 was mixed with water, 0.1 mol/L sodium hydroxide solution was added for dissolution, and pH was adjusted to 10. Peptide concentration was adjusted to 1.5 mg/g. In each sample solution, hydrochloride solution was added to decrease pH gradually, and the appearance of the solution was checked.

For the sequence “RYCNLEGPPI (listed as Homo sapiens) [SEQ ID NO: 3, peptide derived from URLC10 protein]”, the “stability in the solution state” value in data set [1] was “poor stability”. Besides, the “level of increase of related substances derived from the peptide” value in data set [1] (five-peptide solution (Table 2) pH 8-11 stored for 6 hours at 25° C., FIGS. 2-1 to 2-3) is “increased and solution stability decreased, when solution pH was 10.0-11.0”.
Regarding VYGIRLEHF [SEQ ID NO: 4, VYGIRLEHF], the “Solubility of each peptide against pH” value in data set [2] was “low when solution pH was around neutral”. Further, the “stability in the solution state” value in data set [1] is on record as “good stability”.
As for “KTVNELQNL (listed as Homo sapiens) [SEQ ID NO: 5, peptide derived from KOC1 protein]”, the “stability in the solution state” value in data set [1] was “poor stability”. The “residual of the peptide” value in data set [1] (five-peptide solution (Table 2) pH 8-11 stored for 6 hours at 25° C., FIGS. 2-4, 2-5) is “prominently decreased and solution stability decreased with increasing solution pH”.
Regarding IYNEYIYDL [SEQ ID NO: 2, IYNEYIYDL], the “Solubility of each peptide against pH” value in data set [2] is “decreased with decreasing pH of the solution”. The Solution state entry in data set [3] (pH 5) is listed as “x”; in data set [3] (pH 5.5), “∘”; in data set [3] (pH 7), “∘”; in data set [3] (pH 8), “∘”; in data set [3] (pH 9), “∘”; in data set [3] (pH 10), “∘”. In addition, the “stability in the solution state” value in data set [1] was “poor stability”.
For EYYELFVNI [SEQ ID NO: 1, EYYELFVNI], in data set [2], the “Solubility of each peptide against pH” value is “decreased with decreasing pH of the solution”. Moreover, the Solution state result in data set [3] (pH 5.4) is recorded as “x”; in data set [3] (pH 5.6), “∘”; in data set [3] (pH 6), “∘”; in data set [3] (pH 6.6), “∘”; in data set [3] (pH 7.9), “∘”; in data set [3] (pH 10), “∘”. Besides, the “stability in the solution state” value in data set [1] is listed as “good stability”.
